The source made the active and inactive calls. The rule behind the calls is not given here.
Key:
Rattus norvegicus [1] = experiment: Effect on calcium transport in vitamin D-deficient Sprague-Dawley rat intestine assessed as ratio of serosal to mucosal calcium level at 260 pmol, ip administered 4 consecutive daily doses assessed after 24 hrs of last dose by gut sac assay; format: functional
Rattus norvegicus [2] = experiment: Effect on bone calcium mobilization in vitamin D-deficient Sprague-Dawley rat assessed as serum calcium level at 960 pmol, ip administered 4 consecutive daily doses assessed after 24 hrs of last dose by spectrometry; format: functional
Rattus norvegicus [3] = experiment: Effect on calcium transport in vitamin D-deficient Sprague-Dawley rat intestine assessed as ratio of serosal to mucosal calcium level at 960 pmol, ip administered 4 consecutive daily doses assessed after 24 hrs of last dose by gut sac assay; format: functional
HL-60 = experiment: Induction of differentiation of human HL-60 cells promyelocytes to monocytes after 4 days by NBT reduction assay; format: functional, cell-based; conditions: HL-60, 96 h
Rattus norvegicus [4] = experiment: Effect on calcium transport in vitamin D-deficient Sprague-Dawley rat intestine assessed as ratio of serosal to mucosal calcium level at 2340 pmol, ip administered 4 consecutive daily doses assessed after 24 hrs of last dose by gut sac assay; format: functional
Rattus norvegicus [5] = experiment: Effect on bone calcium mobilization in vitamin D-deficient Sprague-Dawley rat assessed as serum calcium level at 320 pmol, ip administered 4 consecutive daily doses assessed after 24 hrs of last dose by spectrometry; format: functional
Rattus norvegicus [6] = experiment: Effect on calcium transport in vitamin D-deficient Sprague-Dawley rat intestine assessed as ratio of serosal to mucosal calcium level at 7800 pmol, ip administered 4 consecutive daily doses assessed after 24 hrs of last dose by gut sac assay; format: functional
Rattus norvegicus [7] = experiment: Effect on bone calcium mobilization in vitamin D-deficient Sprague-Dawley rat assessed as serum calcium level at 7800 pmol, ip administered 4 consecutive daily doses assessed after 24 hrs of last dose by spectrometry; format: functional
Vitamin D3 receptor [8] = molecular target: T1, Vitamin D3 receptor (Rattus norvegicus, UniProt P13053); experiment: Activity at rat recombinant full length VDR expressed in rat ROS 17/2.8 cells transfected with 24-hydroxylase gene promoter assessed as transcriptional activation after 16 hrs by luciferase reporter gene assay
T1 sequence (P13053 whole entry): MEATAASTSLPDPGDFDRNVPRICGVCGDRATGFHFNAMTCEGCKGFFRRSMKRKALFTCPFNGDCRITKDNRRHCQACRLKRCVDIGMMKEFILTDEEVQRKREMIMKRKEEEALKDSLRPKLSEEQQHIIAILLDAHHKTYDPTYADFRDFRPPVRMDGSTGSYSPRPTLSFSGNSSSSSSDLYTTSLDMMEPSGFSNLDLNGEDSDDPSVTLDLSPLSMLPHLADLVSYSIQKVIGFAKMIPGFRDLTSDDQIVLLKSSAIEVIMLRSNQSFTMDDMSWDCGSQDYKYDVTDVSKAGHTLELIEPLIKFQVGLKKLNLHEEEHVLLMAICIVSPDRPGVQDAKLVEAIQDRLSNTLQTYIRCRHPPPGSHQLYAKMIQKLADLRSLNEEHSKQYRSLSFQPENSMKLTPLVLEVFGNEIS

Rattus norvegicus [9] = experiment: Effect on calcium transport in vitamin D-deficient Sprague-Dawley rat intestine assessed as ratio of serosal to mucosal calcium level at 320 pmol, ip administered 4 consecutive daily doses assessed after 24 hrs of last dose by gut sac assay; format: functional
Vitamin D3 receptor [10] = molecular target: T1, Vitamin D3 receptor; experiment: Displacement of [3H]1-alpha,25-(OH)2D3 from rat recombinant full length VDR
Rattus norvegicus [11] = experiment: Effect on bone calcium mobilization in vitamin D-deficient Sprague-Dawley rat assessed as serum calcium level at 2340 pmol, ip administered 4 consecutive daily doses assessed after 24 hrs of last dose by spectrometry; format: functional
Rattus norvegicus [12] = experiment: Effect on bone calcium mobilization in vitamin D-deficient Sprague-Dawley rat assessed as serum calcium level at 260 pmol, ip administered 4 consecutive daily doses assessed after 24 hrs of last dose by spectrometry; format: functional
[13] = molecular target: T2, Vitamin D3 receptor (Rattus norvegicus) (UniProt P13053); experiment: Antagonist activity at rat recombinant VDR expressed in rat ROS 17/2.8 cells transfected with 24-hydroxylase gene promoter assessed as 1-alpha,25-(OH)2D3-induced transcriptional activation at 0.001 uM to 0.1 uM after 16 hrs by luciferase reporter gene assay; format: functional, cell-based
T2 sequence (whole entry): T1 sequence (P13053 whole entry)

| EC50 (HL-60) [nM] | EC50 (Vitamin D3 receptor [8]) [nM] | Ki (Vitamin D3 receptor [10]) [nM] | Activity [13] | SMILES | Ratio (Rattus norvegicus [1]) | Ratio (Rattus norvegicus [2]) | Ratio (Rattus norvegicus [3]) | Ratio (Rattus norvegicus [4]) | Ratio (Rattus norvegicus [5]) | Ratio (Rattus norvegicus [6]) | Ratio (Rattus norvegicus [7]) | Ratio (Rattus norvegicus [9]) | Ratio (Rattus norvegicus [11]) | Ratio (Rattus norvegicus [12]) |
| --- | --- | --- | --- | --- | --- | --- | --- | --- | --- | --- | --- | --- | --- | --- |
| 2 | 100 | 2 |  | C=C1C[C@@H](C[C@@H](C)[C@H]2CC[C@H]3/C(=C/C=C4C[C@@H](O)C(=C)[C@H](O)C4)CCC[C@]23C)OC1=O | 5.6 | 3.8 | 5.9 | 9.6 | 3.7 | 11 | 4 | 5.1 |  |  |
| 4 | 2 | 1 |  | C=C1C[C@H](C[C@@H](C)[C@H]2CC[C@H]3/C(=C/C=C4C[C@@H](O)C(=C)[C@H](O)C4)CCC[C@]23C)OC1=O | 7.6 |  |  | 9.5 |  |  |  |  | 4.2 | 4.4 |
|  |  |  | Active | C=C1[C@H](O)CC(=C/C=C2\CCC[C@]3(C)[C@@H]([C@H](C)/C=C/[C@@H](O)C4(C(=O)OCCCC)CC4)CC[C@@H]23)C[C@H]1O |  |  |  |  |  |  |  |  |  |  |

— ChEMBL document CHEMBL1144158, “Synthesis and biological properties of 2-methylene-19-nor-25-dehydro-1alpha-hydroxyvitamin D(3)-26,23-lactones--weak agonists” (Bioorg Med Chem, 2008)
